Data reported in patent US20240066115A1, “DETERMINATION AND USES OF CD8+ T CELL EPITOPES” (priority 2021, published 2024).
Where a SMILES comes first, the peptide text is derived from it.

Assays:
GL261/vIII = test: Intracranial glioma model GL261/vIII, peptide vaccination; assay type: in vivo; conditions: candidate peptides as individual vaccines
Description: Y6-pepvIII is effective in an intracranial glioma model. Because of its significant effect on survival in the EGFRvIII subcutaneous tumor model, we selected Y6-pepvIII for in-depth analysis. First, we tested this vaccine in a model that more accurately represented human gliomas. We utilized the commonly employed murine glioma 261 (GL261) intracranial tumor model (30) which was transfected with the EGFRvIII cDNA to yield a line with high expression, GL261/vIII. We explored intracranial injection protocols that would lead to reproducible survival curves and identified conditions where 90% of the animals survived 23-29 days. To compare vaccine efficacy, mice received either Montanide (ISA51) alone, 100 ug of KLH with Montanide, 100 ug of KLH conjugated to pepvIII or Y6-pepvIII in Montanide following the vaccination schedule outlined in FIG. 2A. While KLH treatment had no measurable impact on survival, vaccination with the pepvIII induced a modest but statistically significant 23% increase in survival vs. control mice (FIG. 2B; median survival: Control=26.0 days, KLH=27 days, pepvIII=32 days, p<0.0001).
Intracranial model. Six to 8-week old C57BL/6J mice (Jackson Laboratories, Bar Harbor, ME), had gliomas established by stereotactically injecting 10,000 GL261/vIII […] CT2A/vIII cells into the left striatum (2 mm posterior to the coronal suture and 2 mm lateral to the sagittal suture) on day 0 of the experimental process as previously described. Briefly, mice were anesthetized with isoflurane (4%) and placed in the stereotactic frame. An incision was made, and a burr hole was drilled over the striatum. GL261/vIII or CT2A/vIII cells were injected at the above stated coordinates using a Hamilton Microsyringe controlled by an automated micro-pump injection system. Mice were assigned to treatment groups randomly and tumor progression was monitored by bioluminescent signal as detected by the IVIS imaging system (Caliper Life Sciences, Hopkinton, MA).
For survival experiments, each treatment group consisted of 6 to 15 mice. […]

GL261/vIII target cells = test: Cytotoxic T cell killing assay, T cells from vaccinated mice; conditions: 50:1 effector to target ratio

LEEYVVTDH
increase in survival relative to KLH treated control mice (GL261/vIII): 54%

CC(C)C[C@H](N)C(=O)N[C@@H](CCC(=O)O)C(=O)N[C@@H](CCC(=O)O)C(=O)N[C@@H](CCCCN)C(=O)N[C@@H](CCCCN)C(=O)NCC(=O)N[C@@H](CC(N)=O)C(=O)N[C@@H](Cc1ccc(O)cc1)C(=O)N[C@H](C(=O)N[C@H](C(=O)N[C@H](C(=O)N[C@@H](CC(=O)O)C(=O)N[C@@H](Cc1c[nH]cn1)C(=O)O)[C@@H](C)O)C(C)C)C(C)C [pepvIII, reference compound]
cytotoxic activity against GL261/wt target cells (GL261/wt target cells): no cytotoxic activity

NYVVTDH
increase in survival relative to KLH treated control mice (GL261/vIII): 18%

LEEKKNYV
increase in survival relative to KLH treated control mice (GL261/vIII): 30%

CC(C)C[C@H](N)C(=O)N[C@@H](CCC(=O)O)C(=O)N[C@@H](CCC(=O)O)C(=O)N[C@@H](CCCCN)C(=O)N[C@@H](CCCCN)C(=O)N[C@@H](Cc1ccc(O)cc1)C(=O)N[C@@H](CC(N)=O)C(=O)N[C@@H](Cc1ccc(O)cc1)C(=O)N[C@H](C(=O)N[C@H](C(=O)N[C@H](C(=O)N[C@@H](CC(=O)O)C(=O)N[C@@H](Cc1c[nH]cn1)C(=O)O)[C@@H](C)O)C(C)C)C(C)C [Y6-pepvIII] (H-LEEKKYNYVVTDH-OH)
cytotoxic capacity of T cells of vaccinated mice (GL261/vIII target cells): increased cytotoxic capacity
cytotoxic activity against GL261/wt target cells (GL261/wt target cells): no cytotoxic activity
